# Results: patent US10570179B2, “Substituted urea depsipeptide analogs as activators of the CLPP endopeptidase” (priority 2016, dated 2020)
# Like-named read-outs stand apart in the source and are kept apart here. Numbered stars: 1 amine (or outer) side, 2 acyl side, 3 side chain; on linkers, the order of the positions; unused ones are H or OH. Bridge positions count the residues as written; N and C are the ends. Square brackets hold non-standard residues; d marks the D form. Peptide text beside a SMILES is read from it. * marks the point of attachment. Piperazine(2S-CO,4-Me) = CN1CCN[C@H](C(=O)O)C1; Morpholine(3S-CO) = O=C(O)[C@@H]1COCCN1; Phe(3-Me) = Cc1cccc(C[C@H](N)C(=O)O)c1; X4 = O=C1CN([*:1])[C@H](C(=O)[*:2])CN1; NH(4-Cl-2-F-phenyl) = Fc1cc(Cl)ccc1N*; Pro(4R-Me) = C[C@H]1CN[C@H](C(=O)O)C1; Hyp = O=C(O)[C@@H]1C[C@@H](O)CN1; NH(4-Et-phenyl) = CCc1ccc(N*)cc1; NH(4-Me-phenyl) = Cc1ccc(N*)cc1; aThr = C[C@H](O)[C@H](N)C(=O)O; Pip = O=C(O)[C@@H]1CCCCN1; X3 = c1cc2c(cc1N*)OCCO2; CO = O=C([*:1])[*:2]
# How the values were obtained:
# S. aureus ClpP (Sa-ClpP) = molecular target: T1, S. aureus ClpP (Sa-ClpP) (Staphylococcus aureus, UniProt Q2G036); experiment: Casein-BODIPY digestion assay (ClpP activation); format: biochemical
# T1 construct: made in house; host or cells: E. coli BL21 (DE3)
# T1 sequence (Q2G036 whole entry): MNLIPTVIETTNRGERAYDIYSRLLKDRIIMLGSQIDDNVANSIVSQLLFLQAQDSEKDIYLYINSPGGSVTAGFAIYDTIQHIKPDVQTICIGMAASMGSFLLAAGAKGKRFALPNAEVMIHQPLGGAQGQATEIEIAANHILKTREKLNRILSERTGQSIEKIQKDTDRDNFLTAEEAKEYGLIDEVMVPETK
# Sa-ClpP = molecular target: T2, Sa-ClpP (Staphylococcus aureus, UniProt Q2G036); experiment: ADEP displacement fluorescence polarization assay; format: binding, S. aureus; conditions: displacement of FP probe ADEP 2591 from Sa-ClpP
# T2 construct: made in house; host or cells: E. coli BL21 (DE3)
# T2 sequence (Q2G036 whole entry): as above
# Method: A fluorescence polarization (FP) assay was used to determine the activity of the disclosed compounds in displacing an ADEP analogue from ClpP. Briefly, the assay was performed in black 384 well, flat bottom, low volume plates (Greiner Bio-One, Monroe, N.C., catalog #784076). 20 μL of a pre-equilibrated (1 hr, room temperature) master mix (15 μM Sa-ClpP, 2% DMSO (v/v) and 50 nM FP probe in TrisHCl, pH 8.0)) was pipetted into each well using a Well-Mate (Thermo Scientific, Waltham, Mass.). Sa-ClpP was prepared as described above for the ClpP activation assay. The FP probe was ADEP 2591 (structure shown above). The ADEP 2591 comprises a TAMRA fluorophore linked to a core based on modified ADEP 2378 via a short alkyl linker. Using pin transfer, approximately 0.4 μL (2% v/v DMSO) of each compound or control was added per well. After addition of compounds and controls, plates were allowed to incubate for an additional 120 minutes at room temperature. All assays were performed in triplicate. Polarization was monitored using an EnVision Multilabel reader (Perkin-Elmer, Waltham, Mass.) by exciting the FP probe at 530±25 nm, and monitoring fluorescence intensity of both parallel and perpendicular polarized light at 579±25 nm. Readout was in millipolarization units (mP).
# Signal gain and G factors were determined in wells containing 200 μM ADEP 2378, which had been previously verified (data not shown) as containing completely unbound ADEP 2591. Data collected was normalized to values obtained from positive (200 μM ADEP 2378) or negative (DMSO) controls. Curves were fit with non-linear regression using the equation “log [inhibitor] vs. Response-variable slope (four parameters)-symmetrical” in the program Prism 6 (GraphPad Software, La Jolla, Calif. USA, www.graphpad.com). The structures for ADEP 2378 and ADEP 2591 are shown above. ADEP 2378 is (E)-N—((S)-1-(((2R,6S,8aS,14aS,20S,23aS)-2,6-dimethyl-5,8,14,19,23-pentaoxooctadecahydro-1H,5H,14H,19H-pyrido[2,1-i]dipyrrolo[2,1-c:2′,1′-1][1]oxa[4,7,10,13]tetraazacyclohexadecin-20-yl)amino)-1-oxo-3-phenylpropan-2-yl)pent-2-enamide. ADEP 2591 is 5-(3-(3-((6S,9S,11aS,17S,20aS)-6,10-dimethyl-5,8,11,16,20-pentaoxo-17-((S)-2-((E)-pent-2-enamido)-3-phenylpropanamido)hexadecahydro-1H,5H,16H-dipyrrolo[2,1-c:2′,1′-1][1]oxa[4,7,10,13]tetraazacyclohexadecin-9-yl)propyl)thioureido)-2-(6-(dimethylamino)-3-(dimethyliminio)-3H-xanthen-9-yl)benzoate.
# S. aureus ATCC 29213 = experiment: Minimal inhibitory concentration, microbroth dilution; format: cell-based; conditions: Staphylococcus aureus
# How it was run: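 Following CLSI M7-A7 microbroth dilution, twofold serial dilutions of compound (top final concentration 200 μM) were combined with an equal volume of broth inoculum at about 10^5 cfu/mL. Plates were incubated aerobically at 37 °C overnight, and the MIC was the lowest concentration preventing visible growth.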
# [1] = ATCC29213, MIC, read-out: Minimal Inhibitory Concentrations (μM) S. aureus ATCC 29213
Compound,EC50 (S. aureus ClpP (Sa-ClpP)) [nM],IC50 (Sa-ClpP) [nM],MIC (S. aureus ATCC 29213; [1]) [µM],"MIC (S. aureus ATCC 29213; ATCC29213, read-out: Minimal Inhibitory Concentrations (μM) S. aureus ATCC 29213, MIC) [µM]"
"CCc1ccc(NC(=O)N[C@@H](Cc2cccc(C)c2)C(=O)N[C@@H]2C(=O)N3C[C@H](O)C[C@H]3C(=O)N3CCOC[C@H]3C(=O)N[C@@H](C)C(=O)N3C[C@H](C)C[C@H]3C(=O)O[C@H]2C)cc1 [Compound 24, (S)-2-(3-(4-ETHYLPHENYL)UREIDO)-N-((6AS,8R,12S,13S,15AS,17R,21S,23AS)-8-HYDROXY-13,17,21-TRIMETHYL-6,11,15,20,23-PENTAOXOOCTADECAHYDRO-6H,11H,15H-[1,4]OXAZINO[3,4-I]DIPYRROLO[2,1-C:2′,1′-L][1]OXA[4,7,10,13]TETRAAZACYCLOHEXADECIN-12-YL)-3-(M-TOLYL)PROPANAMIDE] ({NH(4-Et-phenyl)-CO}-[Phe(3-Me)][aThr][Hyp][Morpholine(3S-CO)]A[Pro(4R-Me)]; ester 2-C)",130 ± 40,2310 ± 200,0.313,–
"CCc1ccc(NC(=O)N[C@@H](Cc2cccc(C)c2)C(=O)N[C@@H]2C(=O)N3C[C@H](O)C[C@H]3C(=O)N3CCCC[C@H]3C(=O)N[C@@H](C)C(=O)N3C[C@H](C)C[C@H]3C(=O)O[C@H]2C)cc1 [Compound 25, (S)-2-(3-(4-ETHYLPHENYL)UREIDO)-N-((2R,6S,8AS,14AS,16R,20S,21S,23AS)-16-HYDROXY-2,6,21-TRIMETHYL-5,8,14,19,23-PENTAOXOOCTADECAHYDRO-1H,5H,14H,19H-PYRIDO[2,1-I]DIPYRROLO[2,1-C:2′,1′-L][1]OXA[4,7,10,13]TETRAAZACYCLOHEXADECIN-20-YL)-3-(M-TOLYL)PROPANAMIDE] ({NH(4-Et-phenyl)-CO}-[Phe(3-Me)][aThr][Hyp][Pip]A[Pro(4R-Me)]; ester 2-C)",410 ± 20,4760 ± 330,0.156,–
"Cc1cccc(C[C@H](NC(=O)Nc2ccc(Cl)cc2F)C(=O)N[C@H]2COC(=O)[C@@H]3C[C@@H](C)CN3C(=O)[C@H](C)NC(=O)[C@@H]3CCCCN3C(=O)[C@@H]3C[C@H](N)CN3C2=O)c1 [Compound 12, (S)—N-((2R,6S,8AS,14AS,16S,20S,23AS)-16-AMINO-2,6-DIMETHYL-5,8,14,19,23-PENTAOXOOCTADECAHYDRO-1H,5H,14H,19H-PYRIDO[2,1-I]DIPYRROLO[2,1-C:2′,1′-L][1]OXA[4,7,10,13]TETRAAZACYCLOHEXADECIN-20-YL)-2-(3-(4-CHLORO-2-FLUOROPHENYL)UREIDO)-3-(M-TOLYL)PROPANAMIDE]",580 ± 20,6030 ± 300,1.25,–
"Cc1cccc(C[C@H](NC(=O)Nc2ccc(Cl)cc2F)C(=O)N[C@@H]2C(=O)N3C[C@H](O)C[C@H]3C(=O)N3CCN(C)C[C@H]3C(=O)N[C@@H](C)C(=O)N3C[C@H](C)C[C@H]3C(=O)O[C@H]2C)c1 [Compound 31, (S)-2-(3-(4-CHLORO-2-FLUOROPHENYL)UREIDO)-N-((6AS,8R,12S,13S,15AS,17R,21S,23AS)-8-HYDROXY-2,13,17,21-TETRAMETHYL-6,11,15,20,23-PENTAOXOOCTADECAHYDRO-2H,6H,11H,15H-PYRAZINO[2,1-I]DIPYRROLO[2,1-C:2′,1′-L][1]OXA[4,7,10,13]TETRAAZACYCLOHEXADECIN-12-YL)-3-(M-TOLYL)PROPANAMIDE] ({NH(4-Cl-2-F-phenyl)-CO}-[Phe(3-Me)][aThr][Hyp][Piperazine(2S-CO,4-Me)]A[Pro(4R-Me)]; ester 2-C)",180 ± 180,3070 ± 70,< 0.02,–
"Cc1cccc(C[C@H](NC(=O)Nc2ccc(Cl)cc2F)C(=O)N[C@H]2COC(=O)[C@@H]3C[C@@H](C)CN3C(=O)[C@H](C)NC(=O)[C@@H]3CN(C)CCN3C(=O)[C@@H]3CCCN3C2=O)c1 [Compound 13, (S)-2-(3-(4-CHLORO-2-FLUOROPHENYL)UREIDO)-3-(M-TOLYL)-N-((6AS,12S,15AS,17R,21S,23AS)-2,17,21-TRIMETHYL-6,11,15,20,23-PENTAOXOOCTADECAHYDRO-2H,6H,11H,15H-PYRAZINO[2,1-I]DIPYRROLO[2,1-C:2′,1′-L][1]OXA[4,7,10,13]TETRAAZACYCLOHEXADECIN-12-YL)PROPANAMIDE] ({NH(4-Cl-2-F-phenyl)-CO}-[Phe(3-Me)]SP[Piperazine(2S-CO,4-Me)]A[Pro(4R-Me)]; ester 2-C)",1520 ± 100,16400 ± 800,1.25,–
"Cc1cccc(C[C@H](NC(=O)Nc2ccc3c(c2)OCCO3)C(=O)N[C@@H]2C(=O)N3CCC[C@H]3C(=O)N3CCCC[C@H]3C(=O)N[C@@H](C)C(=O)N3C[C@H](C)C[C@H]3C(=O)O[C@H]2C)c1 [Compound 21, (S)-2-(3-(2,3-DIHYDROBENZO[B][1,4]DIOXIN-6-YL)UREIDO)-3-(M-TOLYL)-N-((2R,6S,8AS,14AS,20S,21S,23AS)-2,6,21-TRIMETHYL-5,8,14,19,23-PENTAOXOOCTADECAHYDRO-1H,5H,14H,19H-PYRIDO[2,1-I]DIPYRROLO[2,1-C:2′,1′-L][1]OXA[4,7,10,13]TETRAAZACYCLOHEXADECIN-20-YL)PROPANAMIDE] ({X3-CO}-[Phe(3-Me)][aThr]P[Pip]A[Pro(4R-Me)]; ester 2-C)",370 ± 40,3740 ± 240,0.625,–
"Cc1ccc(NC(=O)N[C@@H](Cc2cccc(C)c2)C(=O)N[C@@H]2C(=O)N3C[C@H](O)C[C@H]3C(=O)N3CCCC[C@H]3C(=O)N[C@@H](C)C(=O)N3C[C@H](C)C[C@H]3C(=O)O[C@H]2C)cc1 [Compound 26, (S)—N-((2R,6S,8AS,14AS,16R,20S,21S,23AS)-16-HYDROXY-2,6,21-TRIMETHYL-5,8,14,19,23-PENTAOXOOCTADECAHYDRO-1H,5H,14H,19H-PYRIDO[2,1-I]DIPYRROLO[2,1-C:2′,1′-L][1]OXA[4,7,10,13]TETRAAZACYCLOHEXADECIN-20-YL)-3-(M-TOLYL)-2-(3-(P-TOLYL)UREIDO)PROPANAMIDE] ({NH(4-Me-phenyl)-CO}-[Phe(3-Me)][aThr][Hyp][Pip]A[Pro(4R-Me)]; ester 2-C)",650 ± 90,4260 ± 160,–,0.313
"Cc1cccc(C[C@H](NC(=O)Nc2ccc(Cl)cc2F)C(=O)N[C@@H]2C(=O)N3CCC[C@H]3C(=O)N3CC(=O)NC[C@H]3C(=O)N[C@@H](C)C(=O)N3C[C@H](C)C[C@H]3C(=O)O[C@H]2C)c1 [Compound 20, (S)-2-(3-(4-CHLORO-2-FLUOROPHENYL)UREIDO)-3-(M-TOLYL)-N-((6AS,12S,13S,15AS,17R,21S,23AS)-13,17,21-TRIMETHYL-3,6,11,15,20,23-HEXAOXOOCTADECAHYDRO-2H,6H,11H,15H-PYRAZINO[2,1-I]DIPYRROLO[2,1-C:2′,1′-L][1]OXA[4,7,10,13]TETRAAZACYCLOHEXADECIN-12-YL)PROPANAMIDE] ({NH(4-Cl-2-F-phenyl)-CO}-[Phe(3-Me)][aThr]P[X4]A[Pro(4R-Me)]; ester 2-C)",710 ± 80,4210 ± 200,1.25,–
"Cc1cccc(C[C@H](NC(=O)Nc2ccc3c(c2)OCCO3)C(=O)N[C@H]2COC(=O)[C@@H]3C[C@@H](C)CN3C(=O)[C@H](C)NC(=O)[C@@H]3CCCCN3C(=O)[C@@H]3CCCN3C2=O)c1 [Compound 22, (S)-2-(3-(2,3-DIHYDROBENZO[B][1,4]DIOXIN-6-YL)UREIDO)-N-((2R,6S,8AS,14AS,20S,23AS)-2,6-DIMETHYL-5,8,14,19,23-PENTAOXOOCTADECAHYDRO-1H,5H,14H,19H-PYRIDO[2,1-I]DIPYRROLO[2,1-C:2′,1′-L][1]OXA[4,7,10,13]TETRAAZACYCLOHEXADECIN-20-YL)-3-(M-TOLYL)PROPANAMIDE]",650 ± 60,4120 ± 290,5,–
"Cc1cccc(C[C@H](NC(=O)Nc2ccc(Cl)cc2F)C(=O)N[C@H]2COC(=O)[C@@H]3C[C@@H](C)CN3C(=O)[C@H](C)NC(=O)[C@@H]3CCCCN3C(=O)[C@@H]3CCCN3C2=O)c1 [Compound 8, (S)-2-(3-(4-CHLORO-2-FLUOROPHENYL)UREIDO)-N-((2R,6S,8AS,14AS,20S,23AS)-2,6-DIMETHYL-5,8,14,19,23-PENTAOXOOCTADECAHYDRO-1H,5H,14H,19H-PYRIDO[2,1-I]DIPYRROLO[2,1-C:2′,1′-L][1]OXA[4,7,10,13]TETRAAZACYCLOHEXADECIN-20-YL)-3-(M-TOLYL)PROPANAMIDE]",280 ± 20,3510 ± 100,0.625,–
